Test results reported in EP4737445A1, “NOVEL SATURATED HETEROCYCLE-SUBSTITUTED HETEROARYL-CARBONOHYDRAZONOYL DICYANIDE COMPOUND AND USE THEREOF” (Korea Institute of Science and Technology, priority 2023, dated 2025).

Columns and labels:
Assay type in all cases: in vivo
[1] = test system: TauP301L-BiFC Tg mice; assay: Y-maze test in tau transgenic mice; conditions: oral 10 mg/kg, 5 times per week, 19 weeks, vehicle = 60.7%
Method: (§1) Compounds 6, 16, and 20 were orally administered to 8.2-month-old tau transgenic animal model (TauP301L-BiFC tg mouse) 5 times per week at a concentration of 10 mg/kg for a total of 19 weeks (n=10/group). WT mice of similar age to the vehicle-treated group of TauP301L-BiFC mice were used as a control group. Three types of behavioral experiments (Novel Objective Recognition test, Y-maze test, Balance beam test) were performed to confirm the improvement effects on cognitive function and motor function by drug administration, and these experiments and their results were as follows. • (1) Novel Objective Recognition test: To evaluate the object recognition memory ability of mice, two identical objects (Old-Old) were explored for 10 minutes in a 40 cm × 40 cm box. The next day, one object was replaced with a new object (Old-New) and exploration was performed again for 10 minutes, and then the time showing exploratory behavior toward the existing object and the new object was measured. Mice with normal object recognition ability (Recognition index) spent more time exploring the newly changed object, whereas mice with low object recognition ability could not distinguish the new object. The object recognition ability (Recognition index) values were as follows: (RI, Vehicle= 0.48, n.s., #20= 0.59, p<0.05, #6= 0.66, p<0.0001, #16= 0.58, p<0.05). In TauP301L-BiFC mice, the object recognition function improvement effect by drugs #20, #6, and #16 compared to the vehicle group was confirmed. • (2) Y-maze test: A Y-maze test was performed to evaluate the spatial working memory ability of mice. Whether the mice entered the three arms of the Y-maze by spontaneous alternation behavior for a certain period of time was measured through video recording. An increase in the spontaneous alternation ratio was considered as improved working memory ability. […] The time taken to cross a rod with a height of 50 cm and length of 80 cm and the number of times the feet went outside the rod during crossing were measured. […]

[2] = Pharmacokinetic study in rats (IV and PO, plasma); conditions: Sprague-Dawley, rat, SD rats
Method: The pharmacokinetics of the compounds prepared according to Examples 1 to 46 were studied using experimental animal models. Specifically, 7- to 8-week-old SD rats (Koatech, Hana Sangsa Co., Ltd.) weighing approximately 250 to 300 g were purchased and maintained in a small animal simple breeding room set at a temperature of 22 ± 2°C, relative humidity of 50 ± 5%, lighting time of 12 hours (lights on at 8 AM and lights off at 8 PM), and illumination of 150 to 300 lux. Throughout the entire test period, feed was provided ad libitum, RO water was provided ad libitum, and fasting was performed for 16 hours before oral administration of the drug. After preparing the drugs under the conditions shown in Table 7 below, the drugs were administered by intravenous injection (IV) or oral administration (PO). Collected blood at 500 µL was collected in tubes containing heparin sodium and centrifuged at 8000 rpm at 2 to 8°C for 6 minutes to obtain plasma from the blood. 20 µL of the obtained plasma was taken, added to 180 µL of acetonitrile containing an internal standard, vortexed, and centrifuged at 15,000 rpm at 4°C for 5 minutes, and the obtained supernatant was analyzed by LC-MS/MS. The HPLC and MS conditions used for analysis are shown in Tables 8 and 9 below, respectively.
Specific PK parameters were calculated using Phoenix WinNonlin 6.4 version (Pharsight, USA) program and a non-compartmental analysis model, and the results are summarized in Table 11 below.

[3] = test system: TauP301L-BiFC Tg mice; assay: Balance beam test in tau transgenic mice; conditions: oral 10 mg/kg, 5 times per week, 19 weeks, vehicle = 1.5
Method: as §1

[4] = molecular target: T1, tau (Homo sapiens, UniProt P10636, P618L); assay: AT8 (pS202/T205) phospho-tau immunofluorescence of brain tissue; conditions: TauP301L-BiFC mice; oral 10 mg/kg, 19 weeks; vehicle = 100%
T1 construct: BiFC fluorescent-protein fragments (two complementary halves); from tissue; host or cells: brain of TauP301L-BiFC transgenic mice
Method: After oral administration of Compounds 6, 16, and 20 and completion of behavioral experiments, 13.2-month-old TauP301L-BiFC mice were sacrificed to proceed with brain tissue extraction and [2] brain lysate separation and purification. • [1] First, brain tissue extraction, BiFC fluorescence imaging of brain tissue, and tau phosphorylation antibody immunofluorescence were performed through the following process. TauP301L-BiFC mice were perfused with 0.9% saline and fixed with PBS (pH 7.4) solution containing 4% paraformaldehyde. The brain was extracted and fixed in PBS containing 4% paraformaldehyde at 4°C for 48 to 72 hours. For cryoprotection, the brain was transferred to PBS containing 30% sucrose solution and stored at 4°C until it sank. For frozen sectioning, the brain was immersed in O.C.T (Tissue-TEK) and frozen, and then continuously cut using a brain tissue sectioner. Tissue sections with a thickness of 30 µm were stored in PBS containing 0.05% sodium azide at 4°C.
To measure not only tau oligomer formation but also the degree of tau phosphorylation observed in the tau pathology process, immunofluorescence staining using a tau phosphorylation antibody was performed. For brain tissue immunofluorescence image analysis, brain tissue slices (n=10 per group) were stained with AT8 (pS202/T205) antibody (1:200), and the primary antibody was detected using Alexa Fluor 633-labeled anti-mouse secondary antibody (1:500). Fluorescence images (λex=620-640 nm and λem=650-700 nm) were acquired using Axio Scan.Z1 (ZEISS).
The AT8 fluorescence imaging results of a total of two brain tissue regions (hippocampus (CA1), somatosensory cortex) were as follows: • (1) Hippocampus (CA1), vehicle = 100%, #20= 72%, p<0.01, #6= 81%, p<0.05, #16= 76%, p<0.01. • (2) Sensory cortex (SCTX), vehicle = 100%, #20= 54%, p<0.0001, #6= 63%, p<0.001, #16= 57%, p<0.0001.

T1 sequence (P10636 1-441 isoform P10636-8 P301L): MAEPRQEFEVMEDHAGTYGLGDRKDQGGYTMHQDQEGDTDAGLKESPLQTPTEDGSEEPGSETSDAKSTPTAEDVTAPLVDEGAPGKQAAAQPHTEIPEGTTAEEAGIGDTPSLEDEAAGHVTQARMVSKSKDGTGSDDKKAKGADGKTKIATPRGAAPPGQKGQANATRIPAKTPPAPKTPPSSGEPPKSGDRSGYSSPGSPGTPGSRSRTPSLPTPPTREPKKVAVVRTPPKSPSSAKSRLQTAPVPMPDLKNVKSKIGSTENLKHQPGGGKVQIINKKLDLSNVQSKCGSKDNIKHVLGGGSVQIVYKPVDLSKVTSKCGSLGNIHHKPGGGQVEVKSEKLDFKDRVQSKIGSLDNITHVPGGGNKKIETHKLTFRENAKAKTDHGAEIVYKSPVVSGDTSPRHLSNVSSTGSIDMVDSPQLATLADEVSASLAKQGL

Row | SMILES | spontaneous alternation ratio (Alteration ratio (%)) [1] | bioavailability ([2]; IV 2 mg/kg, PO 10 mg/kg) | AUC ([2]; IV, 2 mg/kg) | Cmax ([2]; IV, 2 mg/kg) | clearance ([2]; IV, 2 mg/kg) | half-life ([2]; IV, 2 mg/kg) | AUC ([2]; PO, 10 mg/kg) | Cmax ([2]; PO, 10 mg/kg) | Tmax ([2]; PO, 10 mg/kg) | half-life ([2]; PO, 10 mg/kg) | Average number of times feet went outside the rod (n) [3] | AT8 fluorescence, Hippocampus (CA1) [4] | AT8 fluorescence, Sensory cortex (SCTX) [4] | also measured
1 | Cn1c(N2CCOCC2)nc2cc(NN=C(C#N)C#N)ccc21 [Compound 6, (1-methyl-2-morpholino-1H-benzo[d]imidazol-5-yl)carbonohydrazonoyl dicyanide] | 71.1% | 42% | 1700 ng·h/mL | 9870 ng/mL | 19.5 mL/min/kg | 34.8 min | 3570 ng·h/mL | 4880 ng/mL | 15 min | 53.4 min | 1.1 | 81% | 63% | –
2 | CC1COCCN1c1nc2ccc(NN=C(C#N)C#N)cc2o1 (centres unmarked) [Compound 16, (2-(3-methylmorpholino)benzo[d]oxazol-6-yl)carbonohydrazonoyl dicyanide] | 76.4% | 114% | 4090 ng·h/mL | 4090 ng/mL | 8.33 mL/min/kg | 30.6 min | 23300 ng·h/mL | 11100 ng/mL | 40.2 min | 112 min | 0.8 | 76% | 57% | –
3 | N#CC(C#N)=NNc1ccc2nc(N3C4CCC3COC4)oc2c1 [Compound 20, (2-(3-oxa-8-azabicyclo[3.2.1]octan-8-yl)benzo[d]oxazol-6-yl)carbonohydrazonoyl dicyanide] | 70.8% | – | – | – | – | – | – | – | – | – | 0.7 | 72% | 54% | bioavailability ([2]; IV 1 mg/kg, PO 15 mg/kg): 114%; AUC ([2]; IV, 1 mg/kg): 130 ng·h/mL; clearance ([2]; IV, 1 mg/kg): 132 mL/min/kg; half-life ([2]; IV, 1 mg/kg): 12 min; AUC ([2]; PO, 15 mg/kg): 2210 ng·h/mL; Cmax ([2]; PO, 15 mg/kg): 2050 ng/mL; Tmax ([2]; PO, 15 mg/kg): 24 min; half-life ([2]; PO, 15 mg/kg): 96 min
